Experimental data reported in US10865257B2, “Production methods for aqueous emulsion, fine powder and stretched porous body of modified polytetrafluoroethylene” (AGC Inc., priority 2015, dated 2020).

Assay: LogPOW, distribution coefficient in 1-octanol and water (OECD Test Guideline 107, 117; JIS Z7260-107)
Assay type: physicochemical
Details: 1-octanol/water (1:1) distribution coefficient
Source text: In the present invention, a fluorinated anionic surfactant having a LogPOW of from 2.4 to 3.4 is used. The LogPOW is a distribution coefficient in 1-octanol and water as stipulated in OECD Test Guideline 107, 117 and Japanese Industrial Standard Z7260-107 (2000).
At the time when a mixed liquid of octanol/water (1:1) each containing a surfactant to be measured, is phase-separated, POW represents a ratio of the surfactant concentration in octanol/the surfactant concentration in water. A surfactant having a large distribution coefficient value has a high bioaccumulation property, and a surfactant having a small distribution coefficient value has a low bioaccumulation property. When the LogPOW is 3.4 or less, the bioaccumulation property is judged to be low. By the measurement conducted by the present inventors, the LogPOW of APFO was 3.67.

SMILES: O=C(O)C(F)(F)OC(F)(F)C(F)(F)OC(F)(F)C(F)(F)F [APFDO, ammonium perfluoro-3,6-dioxaoctanoate]
- logP: 3.1

SMILES: O=C(O)C(F)(F)C(F)(F)C(F)(F)C(F)(F)C(F)(F)C(F)(F)C(F)(F)F [APFO, ammonium perfluorooctanoate]
- logP: 3.67
